The results in this text go back to ChEMBL document CHEMBL4373635, “Synthesis of novel vanillin derivatives: novel multi-targeted scaffold ligands against Alzheimer's disease” (Medchemcomm, 2019).

Series [1] in a line: Antioxidant activity assessed as reduction of ferric-tripyridyltriazine complex by measuring trolox equivalents at pH 3.5 after 30 mins under dark condition by FRAP assay. It counts as functional.
A short description of series [2]: Antioxidant activity assessed as AAPH radical scavenging activity by measuring trolox equivalents preincubated for 30 mins followed by AAPH addition and measured every 2 mins for 2 hrs by ORAC assay. Format: functional.
For another series, the target named is Acetylcholinesterase (Electrophorus electricus, UniProt O42275). The series is described as follows: Inhibition of Electrophorus electricus AChE using acetylthiocholine iodide as substrate preincubated for 10 mins followed by substrate addition and measured after 10 mins by Ellman's method. Background: In Ellman's method for cholinesterases, released thiocholine reacts with DTNB.
Acetylcholinesterase, sequence (O42275 whole entry): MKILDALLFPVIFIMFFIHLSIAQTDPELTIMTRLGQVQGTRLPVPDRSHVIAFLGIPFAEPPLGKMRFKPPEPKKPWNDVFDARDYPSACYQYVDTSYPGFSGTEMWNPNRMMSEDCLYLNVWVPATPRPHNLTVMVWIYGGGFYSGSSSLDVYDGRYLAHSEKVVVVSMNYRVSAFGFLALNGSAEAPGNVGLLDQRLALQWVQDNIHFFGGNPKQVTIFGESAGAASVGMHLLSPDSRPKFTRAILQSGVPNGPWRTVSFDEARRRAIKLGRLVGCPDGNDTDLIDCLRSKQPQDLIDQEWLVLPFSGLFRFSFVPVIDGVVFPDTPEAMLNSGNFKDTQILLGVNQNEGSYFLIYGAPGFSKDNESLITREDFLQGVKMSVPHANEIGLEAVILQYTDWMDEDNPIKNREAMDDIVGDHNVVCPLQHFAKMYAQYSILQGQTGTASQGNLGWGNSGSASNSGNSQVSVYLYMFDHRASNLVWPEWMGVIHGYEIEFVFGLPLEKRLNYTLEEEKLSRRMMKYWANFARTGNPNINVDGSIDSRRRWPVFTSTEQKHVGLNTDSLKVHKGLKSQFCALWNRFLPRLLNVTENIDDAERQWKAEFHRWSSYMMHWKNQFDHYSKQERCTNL

The target of series [3] is Amyloid-beta precursor protein (Homo sapiens) (UniProt P05067). Put plainly: Inhibition of amyloid beta (1 to 42 ) (unknown origin) self aggregation at 10 uM after 24 hrs by thioflavin-T fluorescence method relative to control.
Amyloid-beta precursor protein (Homo sapiens), sequence (P05067 whole entry): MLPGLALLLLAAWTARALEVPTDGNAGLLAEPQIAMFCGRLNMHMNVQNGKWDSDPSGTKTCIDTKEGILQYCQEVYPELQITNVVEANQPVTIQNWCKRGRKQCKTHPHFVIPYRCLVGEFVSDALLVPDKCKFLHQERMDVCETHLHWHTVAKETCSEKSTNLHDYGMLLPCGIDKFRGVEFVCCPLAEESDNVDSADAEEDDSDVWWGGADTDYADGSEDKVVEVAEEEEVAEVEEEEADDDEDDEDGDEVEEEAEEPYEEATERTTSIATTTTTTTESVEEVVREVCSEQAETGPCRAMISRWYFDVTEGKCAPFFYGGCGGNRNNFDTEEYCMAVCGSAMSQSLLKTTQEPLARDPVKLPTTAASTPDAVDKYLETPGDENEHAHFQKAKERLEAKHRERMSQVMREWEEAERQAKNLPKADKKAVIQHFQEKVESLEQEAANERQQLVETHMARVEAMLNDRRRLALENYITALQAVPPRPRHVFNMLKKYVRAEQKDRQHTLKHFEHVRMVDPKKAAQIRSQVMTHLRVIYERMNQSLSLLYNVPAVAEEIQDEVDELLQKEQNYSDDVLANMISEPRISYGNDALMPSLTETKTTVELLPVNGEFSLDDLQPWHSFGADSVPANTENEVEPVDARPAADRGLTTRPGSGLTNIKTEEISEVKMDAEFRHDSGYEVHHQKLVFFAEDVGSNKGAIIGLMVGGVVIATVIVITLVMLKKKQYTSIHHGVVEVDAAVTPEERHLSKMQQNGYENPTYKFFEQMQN
Series [4] has as its system SH-SY5Y. The series is described as follows: Cytotoxicity against human SH-SY5Y cells assessed as reduction in cell viability after 24 hrs by MTT assay. Format: cell-based. For orientation: Tetrazolium dyes change colour on reduction, which living cells bring about.
In series [5] the test system is SH-SY5Y. The series is described as follows: Cytotoxicity against human SH-SY5Y cells assessed as reduction in cell viability at 25 uM after 24 hrs by MTT assay. Format: cell-based.
Series [6] has as its system SH-SY5Y. The series is described as follows: Cytotoxicity against human SH-SY5Y cells assessed as cell viability at 12.5 uM after 24 hrs by MTT assay. It counts as cell-based.
In series [7] the test system is SH-SY5Y. Put plainly: Neuroprotective activity against human SH-SY5Y cells assessed as inhibition of H2O2-induced cell death at 5 uM preincubated for 24 hrs followed by H2O2 treatment and measured after 24 hrs by MTT assay relative to control. Format: functional.
For series [8], the system named is SH-SY5Y. Put plainly: Neuroprotective activity against human SH-SY5Y cells assessed as inhibition of H2O2-induced cell death at 1 uM preincubated for 24 hrs followed by H2O2 treatment and measured after 24 hrs by MTT assay. It counts as functional, cell-based.
The test system of series [9] is SH-SY5Y. The series is described as follows: Neuroprotective activity against human SH-SY5Y cells assessed as H2O2-induced cell death at 0.01 to 0.1 uM preincubated for 24 hrs followed by H2O2 treatment and measured after 24 hrs by MTT assay. It counts as functional, cell-based.
Series [10] deals with SH-SY5Y. The series is described as follows: Cytotoxicity against human SH-SY5Y cells assessed as cell viability at 5 uM after 24 hrs by MTT assay. Format: cell-based.

The source made the active and inactive calls. The rule behind the calls is not given here.

With `COc1cc(CNCCCN2C(=O)c3cccc4cccc(c34)C2=O)cc(OC)c1O`, the Activity in series [1] was determined as 1.45 equiv; in series [2], 2 equiv. On Acetylcholinesterase, this compound had an IC50 of 24.3 µM. Moreover, the inhibition in series [3] came to 33.2%.
`COc1cc(/C=N/CCCN2C(=O)c3cccc4cccc(c34)C2=O)ccc1O`: the Activity in [1] worked out at 0.07 equiv; in [2], 2.1 equiv. At Acetylcholinesterase, the IC50 turned out to be 128 µM.
Take `COc1cc(CNCCCN2C(=O)c3cccc4cccc(c34)C2=O)ccc1O`: the Activity in series [1] was found to be 0.26 equiv; in series [2], 3.9 equiv. Further, the IC50 on Acetylcholinesterase amounted to 10.1 µM. Also, the inhibition in series [3] worked out at 30.4%.
With `COc1cc(CNc2ccc(Nc3c4c(nc5ccccc35)CCCC4)cc2)ccc1O`, the Activity in series [1] was 1.54 equiv; in series [2] it was 6.4 equiv; in the series on SH-SY5Y [5] it was “Toxic”; in the series with SH-SY5Y [6] it was “Non-Toxic”; in the series on SH-SY5Y [10] it was “Non-Toxic”. Besides, the IC50 with SH-SY5Y [4] came to 45.1 µM; against Acetylcholinesterase, 2.13 µM. Moreover, the inhibition at 5 µM in the series on SH-SY5Y [7] is 30%. In the series with SH-SY5Y [8], the outcome was Active. In addition, in the series with SH-SY5Y [9], the outcome was inactive. This compound came in with an inhibition in series [3] of 77.1%.

One may read the IC50 as the concentration at which inhibition is half-maximal. Usually inhibition stands for the change of the read-out against control, counted positive when it falls.
